Test results reported in US20220409573A1, “Hippocampus Regeneration And Memory Recovery” (INNOBIOSCIENCE, LLC, priority 2021, published 2022).

Key:
HEK293T cells = experiment: TOP/FOP flash luciferase reporter assay; format: cell-based
Method: Luciferase Assay. 150,000 HEK293T cells were seeded in triplicate per condition and kept for 24 hours at 37° C. with 5% CO2. The cultures were transfected with TOPflash or FOPflash (400 ng), which are firefly-luciferase reporter DNA constructs (Milipore), using LipofectAMINE 2000 (Invitrogen). To control for transfection pRL-TK (10 ng) was included in all transfections. […] Values were normalized by the renilla value from the same well. To statistically compare treatments ANOVA was used.

[1] = system: CA3-CA1 connections in hippocampal slices; experiment: Electrophysiology in Wt hippocampal slices (fEPSP, PPF, LTP, LTD); format: cell-based, mice; conditions: hippocampal slices; 6-BIO 10 nM
Method: Slice Preparation and Electrophysiology. […] Slices were transferred to an experimental chamber (2 ml), superfused (3 ml/min, at 20-22° C.) with gassed ACSF and visualized by trans-illumination with a binocular microscope (MSZ-10, Nikon, Melville, N.Y.). To evoke field excitatory postsynaptic potentials (fEPSPs), we stimulate with bipolar concentric electrodes (Platinum/Iridium, 125 μm OD diameter, FHC Inc., Bowdoin, Me.) generated by a stimulator (Axon 700b, Molecular Devices, Sunnyvale, Calif.) and connected to an isolation unit (Isoflex, AMPI, Jerusalem, Israel) . The stimulation was in the Stratum Radiatum within 100-200 μm from the recording site. The paired pulse facilitation index was calculated by ((R2−R1)/R1), where R1 and R2 were the peak amplitudes of the first and second fEPSP respectively. To generate LTP we used Theta Burst Stimulation (TBS) consisting of 5 trains of stimulus with an inter-train interval of 20 s. Each train consisted of 10 bursts at 5 Hz and each burst having 4 pulses at 100 Hz. To generate LTD we used Low Frequency Stimulation (LFS) consisting in 900 paired pulses at 1 Hz. Recordings were filtered at 2.0-3.0 kHz, sampled at 4.0 kHz using an A/D converter, and stored with pClamp 10 (Molecular Devices). Evoked postsynaptic responses were analyzed off-line, using an analysis software (pClampfit, Molecular Devices), which allowed visual detection of events, computing only those events that exceeded and arbitrary threshold.

[2] = system: Wnt/β-catenin pathway in hippocampal slices; experiment: β-catenin, GSK-3β and Dvl-3 western blot in hippocampal slices of wild-type mice; format: cell-based; conditions: for time at which total levels of β-catenin increased: 5 μM ANDRO, Wnt3a conditioned medium or 10 nM 6-BIO, up to 1 h
Method: Slice preparation. […] Transverse slices (250-300 μm) from the dorsal hippocampus were cut under oxygen-saturated cold artificial cerebrospinal fluid using a Vibroslice microtome (VSL, World Precision Instruments, Inc WPI, Sarasota, Fla.). After obtained, slices were incubated in ACSF for at least than one hour at room temperature, in order to stabilize activity.
Immunoblotting. […] Briefly, tissues were homogenized in RIPA buffer (10 mM Tris-Cl, pH 7.4, EDTA 5 mM, 1% NP-40, 1% sodium deoxycholate, and 1% SDS) supplemented with a protease inhibitor mixture (1 mM PMSF, 2 μg/mL aprotinin, 1 μg/mL pepstatin and 10 μg/mL benzamidine) and phosphatase inhibitors (25 mMNaF, 100 mM Na3VO4, 1 mM EDTA and 30 μM Na4P207) using a Potter homogenizator and then passed sequentially through different caliber syringes. […] Protein concentration was determined using the BCA Protein Assay Kit (Pierce). […] The reactions were followed by incubation with anti-mouse, anti-goat or anti-rabbit IgG peroxidase conjugated (Pierce, Rockford, Ill.) and developed using an ECL kit (Western Lightning Plus ECL, PerkinElmer).

Wnt target genes = experiment: PCR array of Wnt target genes in hippocampal neurons; format: cell-based, rat
Method: Primary culture of rat hippocampal neurons. […] PCR-ARRAY. RNA from hippocampal neurons was extracted using Trizol. Quantification and purity of RNA preparations were checked by absorbance using Nanodrop ND-2000. Only preparations with a 260/280 nm ratio≥1.8, a 260/230 nm ratio ≥1,7 and no sign of RNA degradations, verified by agarose gel electrophoresis with Gel Red TM were used. Genomic DNA was degraded. Using RT2First-Strand cDNA Synthesis kit (SuperArray), 1 μg total RNA was reverse transcribed and then real-time PCR was performed by adding cDNA directly to PCR Master Mix, containing SYBR Green and ROX. The mixtures were then aliquoted into a 96-well PCR array plates, which profiles the expression of 84 Wnt target genes from rat. The PCR was run on ABI StepOnePlus, with 1 cycle of 10 min at 95° C. followed by 40 cycles of 15 s at 95° C. and 1 min at 60° C.
Treatment of neuronal cultures. Primary hippocampal cultures of neurons 14 DIV were washed twice in neurobasal medium and maintained for 1 hour.

[3] = 9 h treatment, of the 86 genes analyzed

Molecule	TOPflash reporter activity (HEK293T cells; ANDRO 10 μM or 6-BIO 10 nM, 24 h)	increase of luciferase reporter over control (HEK293T cells; TOPflash, HEK293T)	induction of LTD (fEPSP slope after LFS) [1]	time at which total levels of β-catenin increased [2]	rate of increase of GSK3β Ser-9 and decrease of Tyr-216 phosphorylation ([2]; compared to Wnt-3a treatment)	Cdh-1 gene expression (Wnt target genes)	number of Wnt target genes specifically modulated (Wnt target genes; [3])	number of changed Wnt target genes shared by ANDRO and 6-BIO (Wnt target genes; [3])	inhibition of β-catenin accumulation by Wnt antagonists sFRP and Dkk-1 ([2]; antagonists 15 min before 5 μM ANDRO or Wnt3a conditioned medium for 1 h)
O=C1Nc2cc(Br)ccc2/C1=C1/Nc2ccccc2/C1=N\O [6-BIO, 6-bromoindirubin-3′-oxime, reference compound]	significant increase	~6 fold	complete inhibition of the induction of LTD	15 min	faster	does not	4 genes	4 genes	–
Wnt-3a	–	–	–	45 min	–	–	–	–	able to inhibit the accumulation of β-catenin in the presence of Wnt3a
